Data: ChEMBL document CHEMBL5104093, “A comprehensive review on β-lapachone: Mechanisms, structural modifications, and therapeutic potentials” (Eur J Med Chem, 2021)
≈ marks a conversion by molar mass, not a printed value.

Key:
[1] = Cytotoxicity against mouse L929 cells assessed as reduction in cell viability incubated for 72 hrs by MTT assay; type: toxicity, cell-based
HCT-116 [2] = test: Cytotoxicity against human HCT-116 cells assessed as reduction in cell viability incubated for 72 hrs by MTT assay; type: functional, cell-based; details: HCT-116, 72 h
MCF7 = test: Cytotoxicity against human MCF7 cells assessed as reduction in cell viability incubated for 72 hrs by MTT assay; type: functional, cell-based; details: MCF7, 72 h
SNB-19 = test: Cytotoxicity against human SNB-19 cells assessed as reduction in cell viability incubated for 72 hrs by MTT assay; type: functional, cell-based; details: SNB-19, 72 h
PC-3 = test: Cytotoxicity against human PC-3 cells assessed as reduction in cell viability incubated for 72 hrs by MTT assay; type: functional, cell-based; details: PC-3, 72 h
B16-F10 = test: Cytotoxicity against mouse B16-F10 cells assessed as reduction in cell viability incubated for 72 hrs by MTT assay; type: functional, cell-based; details: B16-F10, 72 h
Trypanosoma cruzi [3] = test: Antitrypanosomal activity against bloodstream form of Trypanosoma cruzi Y trypomastigotes infected in Swiss Webster mouse assessed as reduction in viable parasite in blood incubated for 24 hrs by Neubauer counting chamber based light microscopic analysis; type: functional, organism-based
[4] = Elimination half life in human at 1.5 mg/kg, iv; type: ADME, organism-based; details: in vivo, read-out: beta t1/2 (converted)
[5] = Volume of distribution at steady state in human; type: ADME
[6] = Oral bioavailability in human at 40 mg/kg; type: ADME, organism-based; details: in vivo
Trypanosoma cruzi [7] = test: Antitrypanosomal activity against bloodstream form of Trypanosoma cruzi Y trypomastigotes infected in albino mouse assessed as reduction in viable parasite in blood incubated for 24 hrs by Neubauer counting chamber method; type: functional, organism-based
[8] = Selectivity index, ratio of IC50 for human PBMC cells to IC50 for human HL-60 cells; type: toxicity; details: PBMC cells versus HL-60 cells, read-out: Ratio IC50
[9] = Clearance in human; type: ADME
[10] = test system: Mycobacterium tuberculosis; test: Antimycobacterial activity against Mycobacterium tuberculosis H37Rv ATCC 27294 assessed as bacterial growth inhibition incubated for 5 days by Alamar blue reagent based assay; type: functional; details: ATCC 27294, 120 h, time 5 day
HepG2 [11] = test: Cytotoxicity against human HepG2 cells assessed as reduction in cell viability incubated for 72 hrs by MTT assay; type: functional, cell-based; details: HepG2, 72 h
[12] = Selectivity index, ratio of IC50 for human L02 cells to IC50 for human HepG2 cells; type: toxicity; details: L02 cells versus HepG2 cells, read-out: Ratio IC50
NCI-H460 = test: Cytotoxicity against human NCI-H460 cells assessed as reduction in cell viability incubated for 72 hrs by MTT assay; type: functional, cell-based; details: NCI-H460, 72 h
Sporothrix [13] = test: Antifungal activity against Sporothrix brasiliensis assessed as fungal growth inhibition incubated for 48 hrs by CLSI-based broth microdilution assay; type: functional
Sporothrix schenckii [14] = test: Antifungal activity against Sporothrix schenckii assessed as fungal growth inhibition incubated for 48 hrs in presence of itraconazole by CLSI-based broth microdilution assay; type: functional
Sporothrix [15] = test: Antifungal activity against Sporothrix brasiliensis assessed as fungal growth inhibition incubated for 48 hrs in presence of itraconazole by CLSI-based broth microdilution assay; type: functional
Sporothrix schenckii [16] = test: Antifungal activity against Sporothrix schenckii assessed as fungal growth inhibition incubated for 48 hrs by CLSI-based broth microdilution assay; type: functional
K562 = test: Cytotoxicity against human K562 cells assessed as reduction in cell viability incubated for 72 hrs by MTT assay; type: functional, cell-based; details: K562, 72 h
[17] = Selectivity index, ratio of IC50 for human PBMC cells to IC50 for human K562 cells; type: toxicity; details: PBMC cells versus K562 cells, read-out: Ratio IC50
SF-295 = test: Cytotoxicity against human SF-295 cells assessed as reduction in cell viability incubated for 72 hrs by MTT assay; type: functional, cell-based; details: SF-295, 72 h
[18] = Selectivity index, ratio of IC50 for human PBMC cells to IC50 for human HCT-116 cells; type: toxicity; details: PBMC cells versus HCT-116 cells, read-out: Ratio IC50
Staphylococcus aureus = test: Antibacterial activity against Staphylococcus aureus 2065 MA assessed as diameter of bacterial growth inhibition by Mueller-Hinton broth based assay; type: functional
NCI-H1975 = test: Cytotoxicity against human NCI-H1975 cells assessed as reduction in cell viability incubated for 72 hrs by MTT assay; type: functional, cell-based; details: NCI-H1975, 72 h
HL-60 = test: Cytotoxicity against human HL-60 cells assessed as reduction in cell viability incubated for 72 hrs by MTT assay; type: functional, cell-based; details: HL-60, 72 h
HepG2 [19] = test: Cytotoxicity against human HepG2 cells assessed as reduction in cell viability incubated for 48 hrs by MTT assay; type: functional, cell-based; details: HepG2, 48 h
HCT-116 [20] = test: Cytotoxicity against human HCT-116 cells assessed as reduction in cell viability incubated for 48 hrs by MTT assay; type: functional, cell-based; details: HCT-116, 48 h

Which results are given for CC1(C)OC2=C(C(=O)C(=O)c3ccccc32)C1n1cc(C[Se]c2ccccc2)nn1 (stereo unspecified)?
IC50 at 72 h [1]: 1.06 µM; IC50 (HCT-116 [2]): 1.06 µM; IC50 (MCF7): 1.06 µM; IC50 (SNB-19): 1.06 µM; IC50 (PC-3): 1.06 µM; IC50 (B16-F10): 1.06 µM

What does the source list for CC1(C)OC2=C(CC1[Se]c1ccc(F)cc1)C(=O)C(=O)c1ccccc12 (stereo unspecified)?
IC50 (HCT-116 [2]): 0.95 µM; IC50 (Trypanosoma cruzi [3]): 38.3 µM; IC50 (MCF7): 0.95 µM; IC50 (SNB-19): 0.95 µM; IC50 (PC-3): 0.95 µM; IC50 (B16-F10): 0.95 µM

Which results are given for CC1(C)CCC2=C(O1)c1ccccc1C(=O)C2=O [LAPACHONE]?
half-life [4]: 2.45 h; Vdss [5]: 490 L/m2; bioavailability [6]: 15.5%; IC50 (Trypanosoma cruzi [7]): 392 µM; selectivity ratio [8]: 827; CL [9]: 114 L/hr/m2

For Cc1ccc(C2CCC3=C(O2)c2ccccc2C(=O)C3=O)cc1 (stereo unspecified), which MIC [10] is on record?
The MIC was 1.25 mg/L (≈ 4.11 µM).

Which IC50 (HepG2 [11]) does the source give for O=C1C(=O)c2ccccc2C2=C1C1(C(=O)Nc3ccc(F)cc31)N1NN=NC1=N2 (stereo unspecified) here?
The IC50 was 2.86 µM.

What about the selectivity ratio [12] of the same compound?
The selectivity ratio was 20.6.

Which MIC [10] does the source give for O=C1C(=O)c2ccccc2C2=C1CCC(c1ccccc1)O2 (stereo unspecified) here?
Its MIC is 2.5 mg/L (≈ 8.61 µM).

What does the source list for CC1(C)OC2=C(C(=O)C(=O)c3ccccc32)[C@H](n2cc(C[Se]c3ccc(F)cc3)nn2)[C@H]1Br?
IC50 (NCI-H460): 1.32 µM; IC50 (PC-3): 1.06 µM

For CC1(c2ccccc2)CC2=C(O1)c1ccccc1C(=O)C2=O (stereo unspecified), which MIC (Sporothrix [13]) is on record?
Its MIC is 2 µM (≈ 0.581 µg/mL).

And the MIC (Sporothrix schenckii [14])?
The MIC was 0.06 µM.

What about the MIC (Sporothrix [15]) of the same compound?
Its MIC is 0.03 µM.

And the MIC (Sporothrix schenckii [16])?
Its MIC is 2 µM (≈ 0.581 µg/mL).

What does the source list for CC1(C)OC2=C(C(=O)C(=O)c3ccccc32)C1Sc1ccccc1 (stereo unspecified)?
IC50 (HCT-116 [2]): 0.9 µM; IC50 (K562): 0.9 µM; selectivity ratio [17]: 2.11; IC50 (SF-295): 0.9 µM; IC50 (PC-3): 0.9 µM; selectivity ratio [18]: 2.96; zone diameter (Staphylococcus aureus): 11 mm

Which IC50 (HCT-116 [2]) does the source give for CC1(C)CCC2=C(O1)c1ccccc1/C(=N/O)C2=O here?
Its IC50 is 2.62 µM.

What about the IC50 (NCI-H1975) of the same compound?
Its IC50 is 2.62 µM.

And the IC50 (SF-295)?
The IC50 was 3.47 µM.

What about the IC50 (HL-60) of the same compound?
Its IC50 is 3.84 µM.

What does the source list for COc1cc(OC)cc(C2C3=C(N=C4N=NNN42)c2ccccc2C(=O)C3=O)c1 (stereo unspecified)?
IC50 (HepG2 [19]): 1.18 µM; IC50 (HCT-116 [20]): 0.22 µM
